Legend:
[1] = test system: Human immunodeficiency virus; assay: Inhibition of HIV wild type integrase assessed as strand transfer activity using U5 GTGC LTR by scintillation proximity assay relative to wild type LTR; design: scale not given: the % may be the effect or the level left; conditions: tested as the 3H-labelled form
[2] = test system: Human immunodeficiency virus type 1 integrase (Human immunodeficiency virus 1), Q7ZJM1 [N155H]; assay: Binding affinity to HIV recombinant integrase N155H mutant using U5 GTdA LTR relative to wild type LTR; conditions: tested as the 3H-labelled form
[3] = test system: Human immunodeficiency virus type 1 integrase (Human immunodeficiency virus 1), Q7ZJM1 [N155H]; assay: Binding affinity to HIV recombinant integrase N155H mutant using U5 dTCA LTR relative to wild type LTR; conditions: tested as the 3H-labelled form
[4] = test system: Human immunodeficiency virus type 1 integrase (Human immunodeficiency virus 1), Q7ZJM1 [N155H]; assay: Binding affinity to HIV recombinant integrase N155H mutant using U5 TTCA LTR relative to wild type LTR; conditions: tested as the 3H-labelled form
[5] = test system: Human immunodeficiency virus type 1 integrase (Human immunodeficiency virus 1), Q7ZJM1 [N155H]; assay: Binding affinity to HIV recombinant integrase N155H mutant using U5 INTCA LTR relative to wild type LTR; conditions: tested as the 3H-labelled form
[6] = test system: Human immunodeficiency virus type 1 integrase (Human immunodeficiency virus 1), Q7ZJM1 [N155H]; assay: Binding affinity to HIV recombinant integrase N155H mutant using U5 ApTCA LTR relative to wild type LTR; conditions: tested as the 3H-labelled form
[7] = test system: Human immunodeficiency virus type 1 integrase (Human immunodeficiency virus 1), Q7ZJM1 [N155H]; assay: Inhibition of HIV recombinant integrase N155H mutant assessed as specific strand transfer activity using U5 GTCA LTR by scintillation proximity assay relative to wild type LTR; design: scale not given: the % may be the effect or the level left; conditions: tested as the 3H-labelled form
[8] = Inhibition of HIV wild type integrase DNA complex; design: species or system Human immunodeficiency virus
[9] = test system: Human immunodeficiency virus; assay: Inhibition of HIV wild type integrase assessed as strand transfer activity using U5 GTCA LTR by scintillation proximity assay relative to wild type LTR; design: scale not given: the % may be the effect or the level left; conditions: tested as the 3H-labelled form
[10] = test system: Human immunodeficiency virus; assay: Binding affinity to HIV wild type integrase using U5 GTCA LTR relative to wild type LTR; conditions: tested as the 3H-labelled form
[11] = test system: Human immunodeficiency virus; assay: Inhibition of HIV wild type integrase assessed as strand transfer activity using U5 GTCT LTR by scintillation proximity assay relative to wild type LTR; design: scale not given: the % may be the effect or the level left; conditions: tested as the 3H-labelled form
[12] = test system: Human immunodeficiency virus; assay: Binding affinity to U5 GTCT LTR HIV wild type integrase using U5 GTCT LTR relative to wild type LTR; conditions: tested as the 3H-labelled form
[13] = test system: Human immunodeficiency virus; assay: Binding affinity to HIV wild type integrase using U5 GTCC LTR relative to wild type LTR; conditions: tested as the 3H-labelled form
[14] = test system: Human immunodeficiency virus; assay: Binding affinity to HIV wild type integrase using U5 GTCACA LTR relative to wild type LTR; conditions: tested as the 3H-labelled form
[15] = test system: Human immunodeficiency virus; assay: Inhibition of HIV wild type integrase assessed as strand transfer activity using U5 GTCAGT LTR by scintillation proximity assay relative to wild type LTR; design: scale not given: the % may be the effect or the level left; conditions: tested as the 3H-labelled form
[16] = test system: Human immunodeficiency virus; assay: Binding affinity to HIV wild type integrase using U5 GTGA LTR relative to wild type LTR; conditions: tested as the 3H-labelled form
[17] = test system: Human immunodeficiency virus type 1 integrase (Human immunodeficiency virus 1), Q7ZJM1 [N155H]; assay: Inhibition of HIV recombinant integrase N155H mutant assessed as strand transfer activity using U5 INTCA LTR by scintillation proximity assay relative to wild type LTR; design: scale not given: the % may be the effect or the level left; conditions: tested as the 3H-labelled form
[18] = test system: Human immunodeficiency virus type 1 integrase (Human immunodeficiency virus 1), Q7ZJM1 [N155H]; assay: Inhibition of HIV recombinant integrase N155H mutant assessed as specific strand transfer activity using U5 ApTCA LTR by scintillation proximity assay relative to wild type LTR; design: scale not given: the % may be the effect or the level left; conditions: tested as the 3H-labelled form
[19] = test system: Human immunodeficiency virus type 1 integrase (Human immunodeficiency virus 1), Q7ZJM1 [N155H]; assay: Inhibition of HIV recombinant integrase N155H mutant assessed as specific strand transfer activity using U5 GddA LTR by scintillation proximity assay relative to wild type LTR; design: scale not given: the % may be the effect or the level left; conditions: tested as the 3H-labelled form
[20] = test system: Human immunodeficiency virus type 1 integrase (Human immunodeficiency virus 1), Q7ZJM1 [Q148R]; assay: Inhibition of HIV recombinant integrase Q148R mutant assessed as strand transfer activity using U5 GTCA LTR by scintillation proximity assay relative to wild type LTR; design: scale not given: the % may be the effect or the level left; conditions: tested as the 3H-labelled form
[21] = test system: Human immunodeficiency virus type 1 integrase (Human immunodeficiency virus 1), Q7ZJM1 [Q148R]; assay: Inhibition of HIV recombinant integrase Q148R mutant assessed as strand transfer activity using U5 GTdA LTR by scintillation proximity assay relative to wild type LTR; design: scale not given: the % may be the effect or the level left; conditions: tested as the 3H-labelled form
[22] = test system: Human immunodeficiency virus type 1 integrase (Human immunodeficiency virus 1), Q7ZJM1 [Q148R]; assay: Binding affinity to HIV recombinant integrase Q148R mutant using U5 GTdA LTR relative to wild type LTR; conditions: tested as the 3H-labelled form
[23] = test system: Human immunodeficiency virus type 1 integrase (Human immunodeficiency virus 1), Q7ZJM1 [Q148R]; assay: Binding affinity to HIV recombinant integrase Q148R mutant using U5 GdCA LTR relative to wild type LTR; conditions: tested as the 3H-labelled form
[24] = test system: Human immunodeficiency virus type 1 integrase (Human immunodeficiency virus 1), Q7ZJM1 [Q148R]; assay: Binding affinity to HIV recombinant integrase Q148R mutant using U5 ApTCA LTR relative to wild type LTR; conditions: tested as the 3H-labelled form
[25] = test system: Human immunodeficiency virus type 1 integrase (Human immunodeficiency virus 1), Q7ZJM1 [Q148R]; assay: Inhibition of U5 TTCA LTR HIV recombinant integrase Q148R mutant assessed as specific strand transfer activity using by scintillation proximity assay relative to wild type LTR; design: scale not given: the % may be the effect or the level left; conditions: tested as the 3H-labelled form
[26] = test system: Human immunodeficiency virus; assay: Inhibition of HIV wild type integrase assessed as strand transfer activity using U5 GTdA LTR by scintillation proximity assay relative to wild type LTR; design: scale not given: the % may be the effect or the level left; conditions: tested as the 3H-labelled form
[27] = test system: Human immunodeficiency virus; assay: Inhibition of HIV wild type integrase assessed as strand transfer activity using U5 dTCA LTR by scintillation proximity assay relative to wild type LTR; design: scale not given: the % may be the effect or the level left; conditions: tested as the 3H-labelled form
[28] = test system: Human immunodeficiency virus; assay: Inhibition of HIV wild type integrase assessed as strand transfer activity using U5 INTCA LTR by scintillation proximity assay relative to wild type LTR; design: scale not given: the % may be the effect or the level left; conditions: tested as the 3H-labelled form
[29] = test system: Human immunodeficiency virus; assay: Inhibition of HIV wild type integrase assessed as strand transfer activity using U5 ApTCA LTR by scintillation proximity assay relative to wild type LTR; design: scale not given: the % may be the effect or the level left; conditions: tested as the 3H-labelled form
[30] = test system: Human immunodeficiency virus; assay: Inhibition of HIV wild type integrase assessed as strand transfer activity using U5 GTTA LTR by scintillation proximity assay relative to wild type LTR relative to wild type LTR; design: scale not given: the % may be the effect or the level left; conditions: tested as the 3H-labelled form
[31] = test system: Human immunodeficiency virus; assay: Binding affinity to HIV wild type integrase using U5 dTCA LTR relative to wild type LTR; conditions: tested as the 3H-labelled form
[32] = test system: Human immunodeficiency virus; assay: Binding affinity to HIV wild type integrase using U5 ApTCA LTR relative to wild type LTR; conditions: tested as the 3H-labelled form
[33] = test system: Human immunodeficiency virus; assay: Binding affinity to HIV wild type integrase using U5 GdC LTR relative to wild type LTR; conditions: tested as the 3H-labelled form
[34] = test system: Human immunodeficiency virus; assay: Inhibition of U5 GddA LTR HIV wild type integrase assessed as strand transfer activity using by scintillation proximity assay relative to wild type LTR; design: scale not given: the % may be the effect or the level left; conditions: tested as the 3H-labelled form
[35] = test system: Human immunodeficiency virus; assay: Inhibition of HIV wild type integrase assessed as strand transfer activity using U5 GTAT LTR by scintillation proximity assay relative to wild type LTR; design: scale not given: the % may be the effect or the level left; conditions: tested as the 3H-labelled form
[36] = test system: Human immunodeficiency virus; assay: Inhibition of HIV wild type integrase assessed as strand transfer activity using U5 GCCA LTR by scintillation proximity assay relative to wild type LTR; design: scale not given: the % may be the effect or the level left; conditions: tested as the 3H-labelled form
[37] = test system: Human immunodeficiency virus; assay: Binding affinity to HIV wild type integrase using U5 GCCA LTR relative to wild type LTR; conditions: tested as the 3H-labelled form
[38] = test system: Human immunodeficiency virus; assay: Inhibition of HIV wild type integrase assessed as strand transfer activity using U5 TTCA LTR by scintillation proximity assay relative to wild type LTR; design: scale not given: the % may be the effect or the level left; conditions: tested as the 3H-labelled form
[39] = test system: Human immunodeficiency virus; assay: Binding affinity to HIV wild type integrase using U5 GTCA/CC LTR relative to wild type LTR; conditions: tested as the 3H-labelled form
[40] = test system: Human immunodeficiency virus; assay: Binding affinity to HIV wild type integrase using U5 GTCA/CT LTR relative to wild type LTR; conditions: tested as the 3H-labelled form
[41] = test system: Human immunodeficiency virus; assay: Binding affinity to HIV wild type integrase using U5 GTCA/C LTR relative to wild type LTR; conditions: tested as the 3H-labelled form
[42] = test system: Human immunodeficiency virus; assay: Inhibition of HIV wild type integrase assessed as specific strand transfer activity using U5 GTdA LTR by scintillation proximity assay relative to wild type LTR; design: scale not given: the % may be the effect or the level left; conditions: tested as the 3H-labelled form
[43] = test system: Human immunodeficiency virus; assay: Inhibition of HIV wild type integrase assessed as specific strand transfer activity using U5 GdC LTR by scintillation proximity assay relative to wild type LTR; design: scale not given: the % may be the effect or the level left; conditions: tested as the 3H-labelled form
[44] = test system: Human immunodeficiency virus; assay: Inhibition of HIV wild type integrase assessed as specific strand transfer activity using U5 GddA LTR by scintillation proximity assay relative to wild type LTR; design: scale not given: the % may be the effect or the level left; conditions: tested as the 3H-labelled form
[45] = test system: Human immunodeficiency virus type 1 integrase (Human immunodeficiency virus 1), Q7ZJM1 [N155H]; assay: Inhibition of HIV recombinant integrase N155H mutant assessed as strand transfer activity using U5 dTCA LTR by scintillation proximity assay relative to wild type LTR; design: scale not given: the % may be the effect or the level left; conditions: tested as the 3H-labelled form

## Cn1c(N2CCCCS2(=O)=O)nc(C(=O)NCc2ccc(F)cc2)c(O)c1=O [BMS-707035]
[1]
  Activity: 25%
[2]
  Activity: 12%
[3]
  Activity: 2%
[4]
  Activity: 1%
[5]
  Activity: 21%
[6]
  Activity: 2%
[7]
  Activity: 82%
[8]
  Ki: 17 nM
[9]
  Activity: 75%
[10]
  Activity: 75%
[11]
  Activity: 75%
[12]
  Activity: 75%
[13]
  Activity: 75%
[14]
  Activity: 75%
[15]
  Activity: 75%
[16]
  Activity: 74%
[17]
  Activity: 23%
[18]
  Activity: > 40%
[19]
  Activity: 3%
[20]
  Activity: 26%
[21]
  Activity: 2.5%
[22]
  Activity: 2%
[23]
  Activity: 3%
[24]
  Activity: 0.5%
[25]
  Activity: > 80%
[26]
  Activity: 32%
[27]
  Activity: 10%
[28]
  Activity: 45%
[29]
  Activity: 2%
[30]
  Activity: 86%
[31]
  Activity: 15%
[32]
  Activity: 24%
[33]
  Activity: 36%
[34]
  Activity: 1%
[35]
  Activity: < 25%
[36]
  Activity: 75%
[37]
  Activity: 75%
[38]
  Activity: 25%
[39]
  Activity: 75%
[40]
  Activity: < 25%
[41]
  Activity: < 25%
[42]
  Activity: 42%
[43]
  Activity: 19%
[44]
  Activity: 3%
[45]
  Activity: 2%
